The subject of one series is brain striatal neurons. Put plainly: NMDA-induced depolarization of mitochondrial membrane (TMRE) in striatal neurons. The format is cell-based. As to conditions: pretreatment 50 μm for 30 minutes; NMDA (100 μM).
Series [1] concerns cultured neonatal rat ventricular myocytes. The series can be described thus: H202-induced depolarization of mitochondrial membrane potential (TMRE) in cardiac myocytes. The format is cell-based. As to conditions: 50 μM H202; for onset of H202-induced depolarization and loss of TMRE fluorescence: pretreatment 50 μM or 100 μM for 30 minutes.
Procedure: TMRE is a lipophilic cation that partitions selectively into the negatively charged mitochondria. Neonatal cultured myocytes (6 days in culture) were loaded with 10 nM TMRE for 60 minutes at 37° C. […] As a control, myocytes were not pretreated with any drug. TMRE was excited at 555 nm and fluorescence emission was detected at 590 nm. Fluorescence images were taken every 2 minutes. At the arrow (FIG. 3), myocytes were subjected to oxidative stress by adding 50 μM H202. Plots were normalized to baseline, and are shown as F/F0, where F is the emitted fluorescence at any given time and F0 is the baseline fluorescence before addition of H202. […] The traces were drawn from the mean values of 7-10 experiments.
TMRE was used as an indicator of mitochondrial membrane potential. The myocytes were pretreated with 50 μM Mito GSH for 30 minutes and then washed to remove the antioxidant from the solution in which myocytes were suspended. In control, myocytes were not pretreated with any drug. TMRE was excited at 555 run and fluorescence emission was detected at 590 nm. Fluorescence images were taken every 2 minutes to avoid photobleaching and phototoxicity. Myocytes were subjected to oxidative stress by adding 50 μM H202.
Another series concerns spinal cord neurons. The series can be described thus: H202-induced apoptosis (condensed and fragmented nuclei) in cultured spinal cord neurons. In kind it is cell-based. The protocol: Central to the therapeutic intervention of spinal cord injury is the belief that spinal cord neurons undergo apoptosis and possibly necrosis under oxidative stress. […] In contrast, control neurons show predominantly diffuse nuclear staining. […] This percentage increased to ˜58% for 500 μM H2O2. […] In contrast, immunoreactivity to cytochrome C oxidase (COX), a marker in the inner mitochondrial membrane remained independent of the mitochondrial insults by H202. The differential staining between cytochrome C and COX affords a secondary method to assess whether a given neuron has undergone mitochondrial permeability transition (MPT).

Another series deals with Rat heart mitochondria. The note with it: pretreatment 5 mM for 30 minutes, 5 μM rotenone and 100 μM t-BuOOH.
In another series the test system is rat heart. Put plainly: Post-ischemic recovery in Langendorff perfused rat heart. Further details: species or system Sprague-Dawley rat. The note with it: 50 μM for 10 minutes prior to ischemia. The method, then:
Following an equilibration period of approximately 25 minutes, global normothermic ischemia was imposed for 25 minutes, followed by reperfusion for 30 minutes.

Data on 8 compounds can be found in patent publication US20110257107A1, “Compounds for Delivering Amino Acids or Peptides with Antioxidant Activity into Mitochondria” (University of Rochester, priority 2006, published 2011).

Entries after “also recorded” stand apart in the source; their conditions may differ. Where two headings read alike, the source gives them in different places.

Procedure for Rat heart mitochondria: Mitochondrial membrane potential was measured by safranine. Safranine is a positively charged dye that accumulates in mitochondria on establishment of an electrical potential across the mitochondrial inner membrane. However, its fluorescence is quenched by its accumulation in mitochondria in response to mitochondrial membrane potential. Rat heart mitochondria (0.2 mg protein/200 μl) were transferred to a well containing 0.3 ml of 150 mM KCl, 5 mM HEPES, 15, μM safranine, 5 mM succinate buffer, 5 μM rotenone and 100 μM t-BuOOH. The mitochondria were placed in a multiplate reader.
Fluorescence measurements were made with excitation and emission wavelengths of 485 and 585 nm, respectively.
Procedure for brain striatal neurons: The effects of mitochondrial-targeted antioxidants upon onset of NMDA (100 μM) induced depolarization of mitochondrial membrane of brain striatal neurons are summarized in Table 1.
Tetramethylrhodamine methyl ester (TMRE) was used as an indicator of mitochondrial membrane potential. […] Control neurons were not pretreated with any drug.

Regarding `CC(=O)N[C@@H](CS)C(=O)OCC[N+](C)(C)C` [Mito NAC, N,S-acetyl-L-cysteine choline ester], the “Time of Onset of Depolarization” value in the series with brain striatal neurons came to 20.5 ± 3.6 min. Further, the “onset of H202-induced depolarization and loss of TMRE fluorescence” value in series [1] is “delayed onset of H202-induced depolarization and loss of fluorescence”; in series [1] (listed as mito NAC), “delay the onset of H202-induced depolarization”.

With `OO` [Compound H202, hydrogen peroxide], the “neurons with condensed and fragmented nuclei” value was about 42% in the series with spinal cord neurons (250 μM H202) and about 58% in the series on spinal cord neurons (500 μM H2O2).

Turning to `C[N+](C)(C)CCOC(=O)CNC(=O)[C@H](CS)NC(=O)CC[C@H](N)C(=O)O.[Cl-]` [Mito GSH, Glutathione choline ester chloride], the “Time of Onset of Depolarization” value with brain striatal neurons stood at 17.5 ± 2.1 min. Further, in series [1] (pretreatment 50 μM for 30 minutes), the “time TMRE fluorescence persisted after H202 treatment” value is 50 min. Further, the “onset of H202-induced depolarization and loss of TMRE fluorescence” value in series [1] was “delayed onset of H202-induced depolarization and loss of TMRE fluorescence; also recorded: significantly enhanced the time for onset of H202-induced depolarization; also recorded: delay the onset of H202-induced depolarization”. In addition, in series [1] (pretreatment 100 μM), the “time for onset of H202-induced depolarization” value is 53 ± 3.6 min.

On to `C[N+](C)(C)CCOC(=O)[C@@H](N)CS.[Cl-]` [cysteine choline ester, [2-(2-Amino-3-mercapto-L-propionyloxy)ethyl]trimethylammonium chloride], for which the “release of intramitochondrial safranine (depolarization of mitochondrial membrane potential)” value is “diminished the release of intramitochondrial safaranine” in the series on Rat heart mitochondria and “minimize the depolarization of mitochondrial membrane potential” with Rat heart mitochondria (listed as CYS CE).

With `N[C@@H](CCC(=O)N[C@@H](CS)C(=O)NCC(=O)O)C(=O)O` [Glutathione, L-γ-glutamyl-L-cysteinylglycine, reference compound], the “time for onset of H202-induced depolarization” value in series [1] (pretreatment 100 μM non-targeted glutathione) is recorded as “did not significantly increase the time for onset of H202-induced depolarization”.

Take `C=CC(O)CC(=O)O` (centres unmarked) [Compound 3-HP, 3-hydroxy-4-pentenoate]: the “percentage of cells showing condensed and fragmented nuclei” value in the series on spinal cord neurons (3-HP depletion of mitochondrial glutathione prior to 250 μM H202 treatment) is reported as 70%.

Regarding `CC(=O)N[C@@H](CS)C(=O)OCC[N+](C)(C)C` [N-acetyl cysteine choline ester, N-acetyl-L-cysteine choline ester], in the series on Rat heart mitochondria (listed as NAC CE), the “release of intramitochondrial safranine (depolarization of mitochondrial membrane potential)” value was “minimize the depolarization of mitochondrial membrane potential”.

`CC(=O)N[C@@H](CS)C(=O)O` [N-acetyl cysteine, N-acetyl-L-cysteine]: the “Time of Onset of Depolarization” value in the series with brain striatal neurons was found to be 10.5 ± 1.9 min. Further, in the series on rat heart, the “onset of ischemic contracture” value is listed as “appeared to delay the onset of ischemic contracture”. In addition, in the series on rat heart (25 minutes ischemia, 30 minutes reperfusion), the “Overall recovery of left-ventricular developed pressure” value amounted to 15.7%.
